Target: T1, mitochondrial electron transport chain complex I (NADH-ubiquinone oxidoreductase) (Homo sapiens, UniProt O75251+O75306+P03886)
T1 construct: gene NDUFS2; native multi-subunit complex in digitonin-permeabilized T47D cells
Assay: oxygen consumption (Clark-type electrode) in permeabilized T47D cells with malate/pyruvate, succinate bypass; […]
Format: cell-based

For `C=C[C@@H]1CSC(C[C@@H](C)[C@@H](C)C[C@H](C)CCN(C)C(=O)[C@H](C)CC)=N1` [kalkitoxin], the “oxygen consumption (Clark-type electrode) in permeabilized T47D cells with malat” value was “kalkitoxin potently suppresses mitochondrial respiration in tumor cells by selectively inhibiting ETC complex I”.
